Data: patent publication US12344613B2, “EGFR inhibitor for the treatment of cancer” (Hoffmann-La Roche Inc., priority 2019, dated 2025)

Biological target: T1, EGFR TMLRCS (BaF3-TMLRCS cell line) (Homo sapiens, UniProt P00533, C797S/L858R/T790M)
T1 construct: host or cells: Ba/F3 (BaF3-TMLRCS), maintained under puromycin selection
Experiment: HTRF Phospho EGFR TMLRCS Assay (Cellular)
Format: cell-based
Settings: BaF3-TMLRCS cells, 4 hours incubation
Description: HTRF Phospho EGFR TMLRCS Assay (Cellular)
BaF3-TMLRCS cell line were obtained from Crownbio (San Diego, CA, USA). Cells were maintained at 37° C., 5% CO2 in RPMI ATCC (Gibco 31870)+2 mM Glutamine+0.5 μg/ml Puromycin supplemented with 10% fetal bovine serum (FBS) (Gibco).
Cells are transferred as above to Greiner Bio-One, Nr. 784-08 micro-titerplate at 20000 cells/well in 12.5 μl of growth medium/well after the plates had been pre-filled with 12.5 nl of DMSO solutions of the to be tested compounds (in dose response) or DMSO only. After spinning the plates at 300×g for 30 seconds the cells were incubated for 4 hours at 37 C, 5% CO2, 95% humidity. The cells were lysed by adding to the compound mix 4 μl/well of the supplemented lysis buffer (Cis-bio, Phospho-EGFR HTRF kit, 64EG1PEH), followed by incubation for 30 min at room temperature with shaking (400 rpm). The plates were then frozen and stored overnight at −80 C. […] The lidded plates were then incubated for 4 h at room temperature before reading the fluorescence emission at 616 and 665 nm using an Envision reader (Perkin Elmer). Data was analyzed in similar fashion as above using the normalized ratio of the 665 to 616 signals multiplied by 10000.

T1 sequence (P00533 25-1210 T790M/C797S/L858R): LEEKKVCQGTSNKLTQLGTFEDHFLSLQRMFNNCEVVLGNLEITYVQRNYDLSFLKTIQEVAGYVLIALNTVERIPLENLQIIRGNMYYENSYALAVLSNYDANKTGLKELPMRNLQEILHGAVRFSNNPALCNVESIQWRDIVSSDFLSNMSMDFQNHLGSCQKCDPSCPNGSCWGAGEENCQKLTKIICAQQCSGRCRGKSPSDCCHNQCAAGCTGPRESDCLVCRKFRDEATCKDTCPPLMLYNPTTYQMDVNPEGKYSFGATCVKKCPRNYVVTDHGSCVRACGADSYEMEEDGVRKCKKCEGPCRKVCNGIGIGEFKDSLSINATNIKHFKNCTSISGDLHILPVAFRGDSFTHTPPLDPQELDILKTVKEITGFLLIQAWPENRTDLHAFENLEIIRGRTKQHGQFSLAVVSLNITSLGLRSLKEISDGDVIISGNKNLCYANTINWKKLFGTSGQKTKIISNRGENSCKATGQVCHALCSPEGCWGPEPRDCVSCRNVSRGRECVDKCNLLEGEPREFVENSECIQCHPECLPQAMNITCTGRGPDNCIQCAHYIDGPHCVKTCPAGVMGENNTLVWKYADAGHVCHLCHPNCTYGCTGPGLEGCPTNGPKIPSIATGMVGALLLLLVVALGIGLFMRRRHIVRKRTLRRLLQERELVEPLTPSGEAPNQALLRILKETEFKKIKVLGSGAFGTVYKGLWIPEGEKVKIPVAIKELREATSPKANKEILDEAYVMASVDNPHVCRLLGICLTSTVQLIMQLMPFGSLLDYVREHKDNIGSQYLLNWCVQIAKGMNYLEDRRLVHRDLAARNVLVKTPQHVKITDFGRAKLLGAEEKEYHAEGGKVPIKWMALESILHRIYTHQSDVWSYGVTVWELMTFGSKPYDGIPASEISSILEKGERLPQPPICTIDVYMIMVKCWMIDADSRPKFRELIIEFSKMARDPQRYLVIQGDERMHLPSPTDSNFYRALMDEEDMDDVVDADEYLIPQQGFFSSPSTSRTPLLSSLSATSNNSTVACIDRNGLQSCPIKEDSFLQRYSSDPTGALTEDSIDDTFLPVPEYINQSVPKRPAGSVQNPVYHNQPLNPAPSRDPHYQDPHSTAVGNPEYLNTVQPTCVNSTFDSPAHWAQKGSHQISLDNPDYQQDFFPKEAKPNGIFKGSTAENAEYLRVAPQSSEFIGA

`O=C(Nc1nccs1)C(c1ncn2c1C[C@@H](F)C2)n1cc2c(Cl)cc(-c3ccc(N4CCOCC4)cc3)c(Cl)c2n1` (stereo partly drawn) [Example 1, 2-[4,7-Dichloro-6-(4-morpholinophenyl)indazol-2-yl]-2-[(6R)-6-fluoro-6,7-dihydro-5H-pyrrolo[1,2-c]imidazol-1-yl]-N-thiazol-2-yl-acetamide] showed an IC50 of 5 nM.
